Data published in patent US12030896B2, “PIKfyve inhibitors” (Mayo Foundation for Medical Education and Research, priority 2018, dated 2024).
Values joined by “and” are separate entries in the source; they are usually repeats but may differ in a detail not shown here. Equal values may be shown once. Read-outs that look alike come from different tables or passages of the source.

Assay: Pharmacokinetic study of Example 3 in mouse (IV, IP)
Format: in vivo, C57 Mouse
Details: for AUC(0-inf): read-out: AUCINF_pred
Description: Species: C57 Mouse. Dose Route: IV&IP. Formulation Vehicle: IV&IP: 10% DMSO/30% PEG400/60% Saline. Dose Level: IV (5 mg/kg) and IP (30 mg/kg). Dose Volume: IV (5 mL/kg) and IP (10 mL/kg). Formulation concentrations: IV (1 mg/mL) and IP (3 mg/mL). LLOQ: IV (2 ng/mL) and IP (10 ng/mL).

[1] = 5 mg/kg IV, individual animals 101M-103M
[2] = 30 mg/kg IP, individual animals 201M-203M
[3] = C57, mouse, plasma, ip, 30 mg/kg, 30 mg/kg IP, individual animals 201M-203M
[4] = C57, mouse, plasma, ip, 30 mg/kg, 30 mg/kg IP, mean
[5] = C57, mouse, plasma, iv, 5 mg/kg, 5 mg/kg IV, individual animals 101M-103M
[6] = C57, mouse, plasma, iv, 5 mg/kg, 5 mg/kg IV, mean

## Cc1ccc(Nc2nc(N/N=C/c3c[nH]c4ccccc34)cc(N3CCOCC3)n2)cc1 [Example 3, (E)-4-(2-((1H-indol-3-yl)methylene)hydrazinyl)-6-morpholino-N-(p-tolyl)pyrimidin-2-amine]
5 mg/kg IV, 0.08 h, individual animals 101M-103M
  Plasma concentrations: 9197.2 ng/mL and 4387.4 ng/mL and 7116.5 ng/mL
5 mg/kg IV, 0.25 h, individual animals 101M-103M
  Plasma concentrations: 7195.4 ng/mL and 2758.6 ng/mL and 3627.2 ng/mL
5 mg/kg IV, 0.50 h, individual animals 101M-103M
  Plasma concentrations: 1641.4 ng/mL and 2830.9 ng/mL
5 mg/kg IV, 1.00 h, individual animals 101M-103M
  Plasma concentrations: 944.6 ng/mL and 1358.7 ng/mL
5 mg/kg IV, 2.00 h, individual animals 101M-103M
  Plasma concentrations: 355.3 ng/mL and 348.7 ng/mL
5 mg/kg IV, 4.00 h, individual animals 101M-103M
  Plasma concentrations: 71.0 ng/mL and 80.3 ng/mL
5 mg/kg IV, 8.00 h, individual animals 101M-103M
  Plasma concentrations: 35.2 ng/mL and 37.8 ng/mL
5 mg/kg IV, 24.00 h, individual animals 101M-103M, LLOQ 2 ng/mL
  Plasma concentrations: BLQ
[1]
  AUCINF_pred: 3424.1 ng·h/mL and 4892.0 ng·h/mL
  AUClast: 3387.7 ng·h/mL and 4862.4 ng·h/mL
  Cl_pred: 15.2 mL/min/kg and 24.3 mL/min/kg and 17 mL/min/kg
  Cmax: 9197.2 ng/mL and 4387.4 ng/mL and 7116.5 ng/mL
  HL_Lambda_z (T1/2, h): 0.98 h and 0.85 h
  MRTlast: 0.90 h and 0.77 h
  Vz_pred: 1.12 L/kg and 2.06 L/kg and 1.25 L/kg
5 mg/kg IV, mean
  Cl_pred: 18.8 mL/min/kg
  Vz_pred: 1.48 L/kg
30 mg/kg IP, 0.25 h, individual animals 201M-203M
  Plasma concentrations: 1507.7 ng/mL and 971.3 ng/mL
30 mg/kg IP, 0.50 h, individual animals 201M-203M
  Plasma concentrations: 2007.7 ng/mL and 1751.8 ng/mL
30 mg/kg IP, 1.00 h, individual animals 201M-203M
  Plasma concentrations: 3178.8 ng/mL and 2919.1 ng/mL
30 mg/kg IP, 2.00 h, individual animals 201M-203M
  Plasma concentrations: 3158.8 ng/mL and 3638.0 ng/mL
30 mg/kg IP, 4.00 h, individual animals 201M-203M
  Plasma concentrations: 2115.5 ng/mL and 1962.2 ng/mL
30 mg/kg IP, 8.00 h, individual animals 201M-203M
  Plasma concentrations: 1428.1 ng/mL and 1227.0 ng/mL
30 mg/kg IP, 24.00 h, individual animals 201M-203M
  Plasma concentrations: 185.0 ng/mL and 145.1 ng/mL
[2]
  AUCINF_pred: 29976.8 ng·h/mL and 27188.2 ng·h/mL
  AUClast: 28429.1 ng·h/mL and 26046.4 ng·h/mL
  Cl_F_pred: 22 mL/min/kg and 16.7 mL/min/kg and 18.3 mL/min/kg
  Cmax: 3178.8 ng/mL and 3638.0 ng/mL
  F %: 79.64% and 103.54% and 94.86%
  HL_Lambda_z (T1/2, h): 5.85 h and 5.52 h
  MRTlast: 5.45 h and 5.15 h
  Tmax: 2.00 h
  Vz_F_pred: 10.11 L/kg and 8.44 L/kg and 8.78 L/kg
30 mg/kg IP, mean
  Cl_F_pred: 19 mL/min/kg
  Vz_F_pred: 9.11 L/kg
C57, mouse, plasma, intraperitoneal, 30 mg/kg, 30 mg/kg IP, 0.25 h, individual animals 201M-203M, read-out: Plasma concentrations
  concentration at 0.25 h: 1490 ng/mL
C57, mouse, plasma, intraperitoneal, 30 mg/kg, 30 mg/kg IP, 0.25 h, mean, read-out: Plasma concentrations
  concentration at 0.25 h: 1320 ng/mL
C57, mouse, plasma, intraperitoneal, 30 mg/kg, 30 mg/kg IP, 0.50 h, individual animals 201M-203M, read-out: Plasma concentrations
  concentration at 0.5 h: 2270 ng/mL
C57, mouse, plasma, intraperitoneal, 30 mg/kg, 30 mg/kg IP, 0.50 h, mean, read-out: Plasma concentrations
  concentration at 0.5 h: 2010 ng/mL
C57, mouse, plasma, intraperitoneal, 30 mg/kg, 30 mg/kg IP, 1.00 h, individual animals 201M-203M, read-out: Plasma concentrations
  concentration at 1 h: 2990 ng/mL
C57, mouse, plasma, intraperitoneal, 30 mg/kg, 30 mg/kg IP, 1.00 h, mean, read-out: Plasma concentrations
  concentration at 1 h: 3030 ng/mL
C57, mouse, plasma, intraperitoneal, 30 mg/kg, 30 mg/kg IP, 2.00 h, individual animals 201M-203M, read-out: Plasma concentrations
  concentration at 2 h: 2830 ng/mL
C57, mouse, plasma, intraperitoneal, 30 mg/kg, 30 mg/kg IP, 2.00 h, mean, read-out: Plasma concentrations
  concentration at 2 h: 3210 ng/mL
C57, mouse, plasma, intraperitoneal, 30 mg/kg, 30 mg/kg IP, 4.00 h, individual animals 201M-203M, read-out: Plasma concentrations
  concentration at 4 h: 1600 ng/mL
C57, mouse, plasma, intraperitoneal, 30 mg/kg, 30 mg/kg IP, 4.00 h, mean, read-out: Plasma concentrations
  concentration at 4 h: 1890 ng/mL
C57, mouse, plasma, intraperitoneal, 30 mg/kg, 30 mg/kg IP, 8.00 h, individual animals 201M-203M, read-out: Plasma concentrations
  concentration at 8 h: 998 ng/mL
C57, mouse, plasma, intraperitoneal, 30 mg/kg, 30 mg/kg IP, 8.00 h, mean, read-out: Plasma concentrations
  concentration at 8 h: 1220 ng/mL
C57, mouse, plasma, intraperitoneal, 30 mg/kg, 30 mg/kg IP, 24.00 h, individual animals 201M-203M, read-out: Plasma concentrations
  concentration at 24 h: 107 ng/mL
C57, mouse, plasma, intraperitoneal, 30 mg/kg, 30 mg/kg IP, 24.00 h, mean, read-out: Plasma concentrations
  concentration at 24 h: 146 ng/mL
C57, mouse, plasma, intravenous, 5 mg/kg, 5 mg/kg IV, 0.08 h, mean, read-out: Plasma concentrations
  concentration at 0.08 h: 6900 ng/mL
C57, mouse, plasma, intravenous, 5 mg/kg, 5 mg/kg IV, 0.25 h, mean, read-out: Plasma concentrations
  concentration at 0.25 h: 4530 ng/mL
C57, mouse, plasma, intravenous, 5 mg/kg, 5 mg/kg IV, 0.50 h, individual animals 101M-103M, read-out: Plasma concentrations
  concentration at 0.5 h: 2080 ng/mL
C57, mouse, plasma, intravenous, 5 mg/kg, 5 mg/kg IV, 0.50 h, mean, read-out: Plasma concentrations
  concentration at 0.5 h: 2180 ng/mL
C57, mouse, plasma, intravenous, 5 mg/kg, 5 mg/kg IV, 1.00 h, individual animals 101M-103M, read-out: Plasma concentrations
  concentration at 1 h: 1350 ng/mL
C57, mouse, plasma, intravenous, 5 mg/kg, 5 mg/kg IV, 1.00 h, mean, read-out: Plasma concentrations
  concentration at 1 h: 1220 ng/mL
C57, mouse, plasma, intravenous, 5 mg/kg, 5 mg/kg IV, 2.00 h, individual animals 101M-103M, read-out: Plasma concentrations
  concentration at 2 h: 309 ng/mL
C57, mouse, plasma, intravenous, 5 mg/kg, 5 mg/kg IV, 2.00 h, mean, read-out: Plasma concentrations
  concentration at 2 h: 338 ng/mL
C57, mouse, plasma, intravenous, 5 mg/kg, 5 mg/kg IV, 4.00 h, individual animals 101M-103M, read-out: Plasma concentrations
  concentration at 4 h: 59 ng/mL
C57, mouse, plasma, intravenous, 5 mg/kg, 5 mg/kg IV, 4.00 h, mean, read-out: Plasma concentrations
  concentration at 4 h: 70.1 ng/mL
C57, mouse, plasma, intravenous, 5 mg/kg, 5 mg/kg IV, 8.00 h, individual animals 101M-103M, read-out: Plasma concentrations
  concentration at 8 h: 26.5 ng/mL
C57, mouse, plasma, intravenous, 5 mg/kg, 5 mg/kg IV, 8.00 h, mean, read-out: Plasma concentrations
  concentration at 8 h: 33.2 ng/mL
[3]
  AUC(0-t): 21900 ng·h/mL
  MRT last: 4.9 h
  AUC(0-inf): 22700 ng·h/mL
C57, mouse, plasma, ip, 30 mg/kg, 30 mg/kg IP, individual animals 201M-203M, read-out: Cmax
  Cmax: 2990 ng/mL
C57, mouse, plasma, ip, 30 mg/kg, 30 mg/kg IP, individual animals 201M-203M, read-out: HL_Lambda_z (T1/2, h) (converted)
  half-life: 5.29 h
C57, mouse, plasma, ip, 30 mg/kg, 30 mg/kg IP, individual animals 201M-203M, read-out: Tmax
  Tmax: 1 h
[4]
  AUC(0-t): 25400 ng·h/mL
  MRT last: 5.17 h
  bioavailability: 92.7%
  AUC(0-inf): 26600 ng·h/mL
C57, mouse, plasma, ip, 30 mg/kg, 30 mg/kg IP, mean, read-out: Cmax
  Cmax: 3270 ng/mL
C57, mouse, plasma, ip, 30 mg/kg, 30 mg/kg IP, mean, read-out: HL_Lambda_z (T1/2, h) (converted)
  half-life: 5.55 h
C57, mouse, plasma, ip, 30 mg/kg, 30 mg/kg IP, mean, read-out: Tmax
  Tmax: 1.33 h
C57, mouse, plasma, ip, 30 mg/kg, IP injection, single 30 mg/kg dose, read-out: half life (converted)
  half-life: ~5.5 h
[5]
  AUC(0-t): 5480 ng·h/mL
  MRT last: 0.63 h
  AUC(0-inf): 5500 ng·h/mL
C57, mouse, plasma, iv, 5 mg/kg, 5 mg/kg IV, individual animals 101M-103M, read-out: HL_Lambda_z (T1/2, h) (converted)
  half-life: 0.85 h
[6]
  AUC(0-t): 4580 ng·h/mL
  MRT last: 0.76 h
  AUC(0-inf): 4610 ng·h/mL
C57, mouse, plasma, iv, 5 mg/kg, 5 mg/kg IV, mean, read-out: Cmax
  Cmax: 6900 ng/mL
C57, mouse, plasma, iv, 5 mg/kg, 5 mg/kg IV, mean, read-out: HL_Lambda_z (T1/2, h) (converted)
  half-life: 0.89 h
IP injection, single 30 mg/kg dose
  peak concentration: 3268 ng/mL
